{"source": "paper PMC12376128", "about": "“In vitro and In Vivo Drug Metabolism Analysis of BPI-460372 - A Covalent TEAD1/3/4 Inhibitor” (Current Drug Metabolism, 2025)", "key": {"[1]": {"system": "CYP2C8", "experiment": "Metabolic stability in HLMs with or without specific CYP inhibitor (quercetin)", "format": "in vitro ADME, human", "details": "HLMs 1 mg protein/mL, substrate 1 μM, quercetin 20 µM", "protocol": "(§1) Before starting the experiments, the HLMs were thawed gently on ice. Metabolic stability incubations were performed at 37 °C. The incubations contained 100 mM phosphate buffer saline (PBS, pH 7.4), HLMs (1 mg protein·mL^-1), dimethyl sulfoxide (DMSO, blank control) or a selective CYP inhibitor, and BPI-460372 or positive control substrates (final incubation concentration, 1 μM). The incubation process started with the addition of NADPH (1 mM final concentration) after a 5-minute preincubation period. The chemical inhibitors were as follows: a-naphthoflavone (2 µM) for CYP1A2, ticlopidine (20 µM) for 2B6, quercetin (20 µM) for CYP2C8, sulfaphenazole (20 µM) for CYP2C9, ticlopidine (200 µM) for CYP2C19, quinidine (20 µM) for CYP2D6, and ketoconazole (20 µM) for CYP3A [9]. Aliquots were maintained in acetonitrile containing internal standard (IS) at various time points, such as 0 min, 5 min, 10 min, 20 min, 30 min, and 60 min. All incubations were performed in triplicate, and the concentration in the supernatant was determined by liquid chromatography-tandem mass spectrometry (LC-MS/MS).\n(§2) The elimination rate constant k (min^-1) was obtained by linear regression from the natural logarithm of the […] of the parent drug and the incubation time. The inhibition rate was calculated using equation 1 [10]: […]"}, "[2]": {"experiment": "Metabolite identification in dog plasma", "format": "in vivo, beagle dogs", "details": "oral 8 mg/kg BPI-460372, average of male and female pooled samples", "in_short": "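Pooled sex-specific samples from SD rats: plasma after 12 mg/kg, urine, feces and bile (collected over 0-48 h) after 6 mg/kg; beagle dog plasma after 8 mg/kg. Acetonitrile extraction (urine centrifuged only), dried, redissolved in acetonitrile/water 20:80, analysed by UHPLC-Orbitrap-HRMS.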"}, "[3]": {"experiment": "Stability in plasma", "format": "in vitro ADME", "details": "monkey plasma, 37°C, 4 h"}, "[4]": {"experiment": "Stability in plasma", "format": "in vitro ADME", "details": "mouse plasma, 37°C, 4 h"}, "[5]": {"molecular_target": "T1, CYP1A2 (Homo sapiens, UniProt P05177)", "T1 sequence (P05177 1-516)": "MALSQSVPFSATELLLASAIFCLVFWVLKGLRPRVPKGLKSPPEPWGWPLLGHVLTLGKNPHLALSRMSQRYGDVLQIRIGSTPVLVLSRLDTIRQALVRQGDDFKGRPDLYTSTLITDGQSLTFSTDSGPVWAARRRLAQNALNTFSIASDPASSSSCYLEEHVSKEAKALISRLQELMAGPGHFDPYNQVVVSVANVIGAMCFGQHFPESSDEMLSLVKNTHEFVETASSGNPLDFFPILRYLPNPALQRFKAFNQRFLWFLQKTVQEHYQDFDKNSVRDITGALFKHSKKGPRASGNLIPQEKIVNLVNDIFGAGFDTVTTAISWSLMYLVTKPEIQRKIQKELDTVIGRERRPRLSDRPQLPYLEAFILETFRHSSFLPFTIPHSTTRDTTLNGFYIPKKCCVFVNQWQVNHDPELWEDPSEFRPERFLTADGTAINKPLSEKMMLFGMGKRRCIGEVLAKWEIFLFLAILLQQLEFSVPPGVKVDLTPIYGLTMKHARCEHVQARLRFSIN", "experiment": "Metabolic stability in HLMs with or without specific CYP inhibitor (α-naphthoflavone)", "format": "in vitro ADME", "set-up": "HLMs (1 mg protein·mL^-1); tissue BioIVT; host or cells: pooled human liver microsomes", "details": "HLMs 1 mg protein/mL, substrate 1 μM, α-naphthoflavone 2 µM", "protocol": "as §1, §2"}, "[6]": {"system": "CYP2C19", "experiment": "Metabolic stability in HLMs with or without specific CYP inhibitor (ticlopidine 200 µM)", "format": "in vitro ADME, human", "details": "HLMs 1 mg protein/mL, substrate 1 μM", "protocol": "as §1, with “The incubations contained 100 mM phosphate buffer saline (PBS, pH 7.4), HLMs (1 mg protein·mL^-1), dimethyl sulfoxide (DMSO, blank control) or a selective CYP inhibitor, and BPI-460372 or positive control substrates (final incubation concentration, 1 μM).” left out\nas §2"}, "[7]": {"experiment": "In vivo clearance", "details": "rats"}}}
{"smiles": "C=C(F)C(=O)N1CC(n2c(=O)n(-c3ccc(C(F)(F)F)cc3)c3nccnc32)C1", "note": "[BPI-460372]", "values": [{"measurement": "Inhibition Rate", "setting": "[1]", "value": 53.9, "unit": "%"}, {"measurement": "Relative abundance of MS peak areas, Dog Plasma 0-48 h", "setting": "[2]", "value": 30.93, "unit": "%"}, {"measurement": "Stability in plasma", "setting": "[3]", "value": "stable"}, {"measurement": "Stability in plasma", "setting": "[4]", "value": "stable"}, {"measurement": "Inhibition Rate", "setting": "[5]", "value": 32.7, "unit": "%"}, {"measurement": "Inhibition Rate", "setting": "[6]", "value": -4.2, "unit": "%"}, {"measurement": "Clearance in vivo", "setting": "[7]", "value": "low clearance"}]}
